13 molecules from patent EP0097070A2, “Process for preparing ellipticine derivatives, compounds so obtained and medicaments containing them” (ELF SANOFI, priority 1982, dated 1983) can be followed below.

Data set [1] deals with cellules tumorales L 1210. The data set can be described thus: Antitumour effect: increase in life span of mice inoculated with L 1210 cells. In kind it is in vivo, souris. The conditions noted are these: 10^5 L 1210 cells i.p.; compound i.p. at dose DL0/2 (half the LD0 dose), 20 hours after inoculation; versus control animals; significant if above 25 p. 100. The text has this: Les cellules tumorales L 1210 sont inoculées par la voie intrapéritonéale à ces souris femelles OBA/2 d'un poids corporel moyen de 20g en une injection unique de 10^5 cellules; chez les animaux traités, le composé étudié est injecté à la dose de OL0/2 également par la voie intrapéritonéale 20 heures après la première injection des cellules L 1210.
L'effet antitumoral est apprécié par la détermination de l'augmentation de la durée de survie (ILS : increase in life Span) des animaux traités par rapport aux animaux témoins qui n'ont reçu que les cellules tumorales.
L'augmentation de la durée de survie est considérée comme significative lorsqu'elle est supérieure à 25 p. 100.
Les résultats obtenus sont consignés dans le tableau suivant qui indique pour les dérivés testés, le pourcentage d'augmentation de la durée de survie par rapport au témoin.

Data set [2] concerns cellules leucémiques L 1210. As to the kind of experiment: Cytotoxicity: growth inhibition of L 1210 cells in culture. The conditions noted are these: concentration giving 50 p. 100 inhibition of cell multiplication, 48 hours of culture, DMSO 1 p. 100 final, read-out: ID50 (the source's name). The class given is cell-based. The source says: Les substances à étudier sont dissoutes dans du DMSO (1 p. 100 final) dont on a préalablement vérifié l'innocuité. Des quantités croissantes du produit à tester sont ajoutées au temps ? des numérations sont faites après 24 heures et 48 heures de contact. Des sérias témoins sont constituées avec ces quantités de DMSO équivalentes à celles des séries traitées. […] 5 Le pourcentage d'inhibition de la croissance cellulaire est déterminé par le rapport […] de croissance du témoin sur […] de croissance des essais pour différentes concentrations de produit à tester après 24 heures et 48 heures de culture Une relation dose effet est déterminée selon […] et WILCOXON (C. DUPONT, […].

Data set [3] relates to souris femelles de type DSA/2. The conditions noted are these: mouse, in vivo, ip, 43200 min. The source says:
Cette étude, effectuée sur des souris femelles de type DSA/2 d'un poids corporel moyen de 20 g a permis de déterminer la DL0, qui représente la dose unique maximum administrable par une injection intrapéritonéale sans qu'aucune mort intervienne dans les 30 jours qui suivent l'administration du produit.

pIC50: −log10 of the molar value. Like-named read-outs stand apart in the source and are kept apart here.

Consider `Cc1c2cc[n+](C)cc2c(C)c2c1[nH]c1ccc(O)c(N=C(CC(C)C)C(=O)O)c12` [dérivé n° 1, acétate es méthyl-2 hydroxy-9 leucine-10, elliopticinium], for which the “POURCENTAGE D'AUGMENTATION DE LA DUREE DE SURVIE (ILS)” value in data set [1] was determined as 35 p. 100. For the same molecule, the pIC50 in data set [2] (Mus musculus, L1210) was 6.55. This molecule also displayed a DL0 in data set [3] of 10 mg/kg.
Consider `Cc1c2cc[n+](C)cc2c(C)c2c1[nH]c1ccc(O)c(N=C(C(=O)O)C(C)C)c12` [dérivé n° 2, acétate de méthyl-2 hydroxy-9 valine 10 ellipticinium], for which the “POURCENTAGE D'AUGMENTATION DE LA DUREE DE SURVIE (ILS)” value in data set [1] is recorded as 31,3 p. 100. In addition, the pIC50 in data set [2] (Mus musculus, L1210) is 6.51. For the same molecule, the DL0 in data set [3] is 15 mg/kg.
Turning to `Cc1c2cc[n+](C)cc2c(C)c2c1[nH]c1ccc(O)c(N=CC(=O)O)c12` [dérivé n° 3], in data set [2] (Mus musculus, L1210), the pIC50 is 6.27. In data set [3], this molecule had a DL0 of 20 mg/kg.
In the case of `Cc1c2cc[n+](C)cc2c(C)c2c1[nH]c1ccc(O)c(N=C(Cc3c[nH]cn3)C(=O)O)c12` [dérivé n° 4], the pIC50 in data set [2] (Mus musculus, L1210) was 5.61.
Regarding `CC(=Nc1c(O)ccc2[nH]c3c(C)c4cc[n+](C)cc4c(C)c3c12)C(=O)O` [dérivé n° 5, scétate ce méthyl-2 hydroxy-9 elanine-10 ellipricinium], in data set [2] (Mus musculus, L1210), the pIC50 is 6.70. In addition, the DL0 in data set [3] came out at 20 mg/kg.
On to `Cc1c2cc[n+](C)cc2c(C)c2c1[nH]c1ccc(O)c(N=C(CCC(=O)O)C(=O)O)c12` [dérivé n° 6, acétate de méthyl-2 hydroxy-9 glutamyle-10 ellipticinium], for which the pIC50 in data set [2] (Mus musculus, L1210) was 4.63.
Same read-out and setting: for `CC(=O)NC(CSc1c(O)ccc2[nH]c3c(C)c4cc[n+](C)cc4c(C)c3c12)C(=O)O` (stereo not shown) [dérivé n° 8, Hexafluorophosphate de méthyl-2 hydroxy-9 N-acétyl cystéin-10 ellipticinium] the value was 5.95; for `Cc1c2cc[n+](C)cc2c(C)c2c1[nH]c1ccc(O)c(SCC(NC(=O)CCC(N)C(=O)O)C(=O)NCC(=O)O)c12` (stereo not shown) [dérivé n° 9, hexafluorophosphata de méthyl-2 hydroxy-9 glutathion-10 ellipticinium], 5.79.
In the case of “Hexafluorophosphate de méthyl-2 hydroxy-8 méthylcystéine-10 ellipticinium [dérivé n° 7]”, in data set [2], the pIC50 was 6.10.
In the case of “acétate de méthyl -2 oxo -9 (guanylyl -5' -P)-10 ellipticinium [dérivé n° 13]”, the pIC50 in data set [2] was less than 6.00.
Still for that read-out and setting: the figure for “acétate de méthyl-2 oxo -9 (adényl -5'-P)-10 ellioticinium [dérivé n° 12]” is less than 6.10; for “acétate de méthyl-2 oxo-9 adényl-10 ellipticinium [dérivé n° 10]” it is 6.30.
The same measure, in the same setting: for “acétate de méthyl-2 oxo-9 guanosyl-10 ellipticinium [dérivé n° 11]” the value was 6.12.
